This is an account of results in patent US20140343118A1, “METHODS OF TREATMENT USING ARYLCYCLOPROPYLAMINE COMPOUNDS” (Duke University, priority 2013, published 2014).

The test system of test [1] is MCF7 cells. Kind of test: Cell cycle analysis (BrdU/PI flow cytometry). It is filed as cell-based. The conditions noted are these: MCF7, 250 μM, 24 hours. As to the method: MCF7 cells were seeded at 400,000 cells per well in 6 well plates in DMEM/F12 (Invitrogen) containing 8% FBS, 1 mM sodium pyruvate and 0.1 mM non-essential amino acids. After 24 h, the cells were treated with fresh media containing the 250 μM inhibitor. After 48 h of treatment, the cells were pulsed for 2 h with BrdU (10 μg mL^−1). The cells were trypsinized and collected using cold IFA buffer (3 mL) (4% charcoal stripped FBS, 150 mM sodium chloride, 10 mM HEPES, pH 7.5). They were washed with PBS, resuspended in 1 mL of PBS and fixed with 70% ethanol. The cells were incubated for 30 min on ice and then stored at −20° C. The cells were washed with PBS containing 0.5% BSA. The pellet was denatured with 2 M hydrochloric acid containing 0.5% BSA. The residual acid was neutralized using 0.1M sodium borate, pH 8.5. The cell pellet was resuspended in dilute anti-BrdU-alexa fluor-488 antibody (Molecular Probes) (PBS+0.5% Tween 20+0.5% BSA+5% antibody). After washing excess away, the cell pellets were resuspended in PI+RNase A (10 μg mL^−1 propidium iodide and 10 μg mL^−1 RNase A in PBS). The cells were vortexed and analyzed using flow cytometry (Accuri C6).
A general note: In flow cytometry, cells or beads pass a laser one at a time.

For another test, the system named is HCC1937 cells. The conditions noted are these: HCC1937, 250 μM every other day for 10 days. As for the experimental part: (§1) After 2 d, the cells were treated with fresh media containing the inhibitors at the concentrations indicated. Every 2 d, for a total of 6 or 10 d, respectively, the cells were treated similarly. […] Data are presented as the mean±SEM for triplicate wells in one representative experiment.

The next test has as its system HCC1143 cells. As to conditions: HCC1143, 250 μM every other day for 10 days. As to the method:
as §1

In test [2] the test system is MCF7 cells. As to conditions: MCF7, 24 h, up to 500 μM.
Test [3] has as its system histone H3K4-Me2 and H3K9-Me2 in MCF7 cells. Kind of test: Western blot of global histone dimethylation. Type of test: cell-based. As to conditions: inhibitors 250 μM for 24 h. As for the experimental part: (§2) MCF7 cells or MDA-MB 231 cells were seeded in six-well plates. Cells were treated after 48 h with inhibitor for 24 h. Whole-cell extracts were isolated using RIPA buffer [50 mM Tris (pH 8.0), 200 mM NaCl, 1.5 mM MgCl2, 1% Nonidet P-40 (NP40), 1 mM EGTA, 10% glycerol, 50 mM NaF, 2 mM Na3VO4 and 1× protease inhibitor mixture]. Crude histones were extracted from the lysate pellet by resuspending in water and precipitating with 25% TCA. The pellets were washed with acetone and then resuspended. Concentration of whole-cell lysate or resuspended histones was determined using Bio-Rad Bradford reagent using BSA for standard curve. For each sample, proteins were resolved by SDS-PAGE and transferred to a PVDF membrane (Biorad).
(§3) H3K4-Me2 was detected using polyclonal rabbit antibody (Millipore 07-030). H3K9-Me2 was detected using a monoclonal mouse antibody (Abcam ab1220). Total H3 was detected using a polyclonal rabbit antibody (Abcam ab1791). LSD1 was detected using a monoclonal rabbit antibody (Millipore 05-939) or polyclonal rabbit antibody (Abcam ab17721). ERα (D12) was detected using monoclonal mouse antibody (Santa Cruz sc-8005). GAPDH was detected using polyclonal goat antibody (Santa Cruz sc-20357). Secondary antibodies were purchased from Bio-Rad.

Test [4] has as its system histone H3K4-Me2 and H3K9-Me2 in MDA-MB-231 cells. Briefly: Western blot of global histone dimethylation. It is filed as cell-based. As to conditions: inhibitors 250 μM for 24 h. As for the experimental part:
as §2, §3
(A western blot detects proteins with antibodies after separation by electrophoresis.)

Test [5] relates to MDA-MB-231 cells. As to conditions: MDA-MB-231, 24 h, up to 500 μM.
Test [6] concerns MCF7 cells. Kind of test: Cell proliferation assay (total DNA content). The conditions noted are these: MCF7, 250 μM every other day for 10 days. It is filed as cell-based. As to the method:
as §1

For test [7], the system named is MDA-MB-231 cells. Briefly: Cell proliferation assay (total DNA content). Type of test: cell-based. The conditions noted are these: MDA-MB-231, 250 μM every other day for 10 days. As for the experimental part:
as §1

A further test concerns the target T1, recombinant LSD1 (Homo sapiens, UniProt O60341).
T1 construct: made in house
Briefly: LSD1 horseradish peroxidase coupled enzyme assay, time-dependent inactivation kinetics. Type of test: biochemical. As to the method:
For example, compounds may be assayed for their ability to inhibit the enzymatic activity of recombinant LSD1 utilizing a horseradish peroxidase coupled assay for the detection of hydrogen peroxide formed in the demethylase catalytic cycle.
LSD1 overexpression, purification and horseradish peroxidase coupled enzyme assay were performed as previously described.
Inhibitors were prepared as 100 mM stocks in dimethylsulfoxide (DMSO) before dilution into assay reagents at appropriate concentrations. Progress curves for time-dependent enzyme inactivation were fit to Equation 1
Product=(vi/kobs)*(1−exp^−kobs*t) (1)
to obtain values of kobs as a function of inhibitor concentration, which were then fit to Equation 2 to obtain values of kinact and K1.

A further test deals with T2, MAO B (Homo sapiens, UniProt P27338).
T2 sequence (P27338 1-520): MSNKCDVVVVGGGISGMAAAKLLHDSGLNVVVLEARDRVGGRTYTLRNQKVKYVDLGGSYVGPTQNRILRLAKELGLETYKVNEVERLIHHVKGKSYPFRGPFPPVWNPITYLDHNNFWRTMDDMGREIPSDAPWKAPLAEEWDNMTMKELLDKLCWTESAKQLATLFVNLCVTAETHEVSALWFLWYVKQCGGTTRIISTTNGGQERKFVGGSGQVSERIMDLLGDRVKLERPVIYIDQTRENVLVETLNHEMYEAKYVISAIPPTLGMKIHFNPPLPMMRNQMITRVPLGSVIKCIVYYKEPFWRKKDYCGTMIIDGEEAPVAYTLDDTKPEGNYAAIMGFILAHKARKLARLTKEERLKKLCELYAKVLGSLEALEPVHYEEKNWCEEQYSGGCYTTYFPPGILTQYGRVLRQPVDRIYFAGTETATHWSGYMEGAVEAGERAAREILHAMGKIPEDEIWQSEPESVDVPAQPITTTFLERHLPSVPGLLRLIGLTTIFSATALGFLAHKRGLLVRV
Kind of test: Inhibition kinetics of MAO B.

In the case of `N[C@@H]1C[C@H]1c1ccccc1` (relative stereo) [Compound 2-PCPA, trans-2-Phenylcyclopropylamine], the “cell cycle arrest (accumulation in G1 and G2/M, decrease in S phase)” value with MCF7 cells [1] is “growth arrested”. Also, the cell proliferation result in the test with HCC1937 cells, with HCC1143 cells, with MCF7 cells [6] and in the test with MDA-MB-231 cells [7] was “significantly decreased cell proliferation” in each case. Also, the induction of apoptosis entry in the test with MCF7 cells [2] and in the test on MDA-MB-231 cells [5] was “did not induce apoptosis” each time. Further, the “level of global histone H3K4-Me2” value in test [3] is recorded as “increased”; in test [4], “robust increases”. Further, the figures for the “level of global histone H3K9-Me2” value in [3] and in test [4] were “significant changes were not observed” and “robust increases”, respectively.
For `CCOc1ccc(C2CC2N)cc1` (stereo not shown) [Compound 1b], at recombinant LSD1 (LSD1 inactivation), the kinact came out at 0.02 ± 0.002 s⁻¹.
`NC1CC1c1ccc(Oc2ccccc2)cc1` (stereo not shown) [Compound 1d]: at MAO B, the kinact is 0.032 ± 0.002 s⁻¹.
Take `NC1CC1c1cccc(OCc2ccccc2)c1` (stereo not shown) [Compound 1e]: the kinact at recombinant LSD1 (LSD1 inactivation) worked out at 0.025 ± 0.005 s⁻¹.
With `CC(C)(C)c1ccc(Sc2ccc(C3CC3N)cc2)cc1` (stereo not shown) [Compound 1f], at recombinant LSD1 (LSD1 inactivation), the Ki was found to be 540 ± 160 µM and the kinact amounted to 0.022 ± 0.003 s⁻¹.
Regarding `C#CCNCc1ccccc1` [Compound 2a], on recombinant LSD1 (LSD1 inactivation), the second-order inactivation constant (kinact/KI) was less than 0.6 M⁻¹ s⁻¹.
Same read-out and setting: under `C#CCNCc1ccc(OC(C)C)cc1` [Compound 2b] stands less than 0.8 M⁻¹ s⁻¹.
The same measure, in the same setting: in the case of `C#CCNCc1ccc(Oc2ccccc2)cc1` [Compound 2c] it was less than 0.3 M⁻¹ s⁻¹.
Regarding `C#CCN(C)Cc1ccccc1` [pargyline], the “concentration needed to inhibit LSD1 in vitro” value on recombinant LSD1 is “greater than 5 mM”. For the same compound, on recombinant LSD1 (LSD1 inactivation), the kinact/KI is less than 0.2 M⁻¹ s⁻¹. For the same compound, the enzymatic activity remaining entry on recombinant LSD1 (concentrations as high as 10 mM, prolonged exposure) is recorded as “greater than 70%”.

What is called kinact is the rate constant of inactivation at saturating inhibitor. A word on the kinact/KI: it is the second-order rate constant of inactivation.
